From PMC12479633, “A Phase IIa, Single-Blind, Placebo-Controlled, Parallel-Group Study to Assess Safety, Tolerability, and Pharmacokinetics/Pharmacodynamics of Brensocatib in Adults with Cystic Fibrosis” (Clinical Pharmacokinetics, 2025)
Like-named read-outs stand apart in the source and are kept apart here. Marks after values point to notes of the source that are not given here.

Assay: Plasma pharmacokinetics of brensocatib in adults with CF, once-daily oral dosing for 28 days (noncompartmental analysis)
Type: in vivo, human
Conditions: for AUC(0-t) / Cmax / AUC(0-inf) / Vd/F / half-life / Tmax: human, plasma, oral
Description: This was a phase IIa, single-blind, randomized, placebo-controlled trial with a parallel-group, multiple-dose design aimed at evaluating the PK, PD, safety, and tolerability of brensocatib in adults with CF (NCT05090904).
Participants were assigned to receive a once-daily dose of brensocatib (10 mg, 25 mg, or 40 mg) or placebo for 28 days.
Plasma PK samples were collected on days 1 (at predose and 0.5, 1, 2, 4, 6, 8, and 24 h postdose), 14 (at predose and 2 h postdose), and 28 (at predose and 0.5, 1, 2, 4, 6, 8, 24, and 168 h postdose). The concentration of brensocatib in the plasma samples was analyzed using a validated liquid chromatography with tandem mass spectrometry method at an external service provider with a quantification range of 0.25–150 ng/mL. The overall intra- and inter-batch precision and accuracy were −2.7 to 2.0% and −1.8 to 0.8%, respectively. The long-term stability was established in human plasma for 346 days at −70 °C. The validation method details were published internally and stored within Insmed’s internal document repository.
Descriptive statistics for continuous variables were calculated. Categorical variables were summarized by counts and by percentage of participants in the corresponding categories. No formal hypothesis was tested. Changes from baseline values were calculated and presented for both safety and efficacy data at each visit, including the percent change from baseline. PK parameters for brensocatib were assessed using noncompartmental analysis via Phoenix® WinNonlin® version 8.2 or later. SAS version 9.4 or higher was employed to prepare PK outputs.
Analysis of dose dependency for brensocatib Cmax, AUC0–24, and area under the concentration–time curve from time 0 to last measurable concentration (AUClast) after single-dose administration and at steady state (day 28) were performed using a power law model. Dose normalization of Cmax, AUC0–24, and AUClast was performed only when a linear and dose-dependent trend was observed.

[1] = Day 28, without CFTR modulator, n 6, dose-normalized
[2] = 10 mg QD, Day 28, n = 8, mean (CV%)
[3] = 25 mg QD, Day 28, n = 7, mean (CV%)
[4] = 40 mg QD, Day 28, n = 8, mean (CV%)

AUClast / D, geometric mean (Day 28, with CFTR modulator, n 16, dose-normalized): 295.1 ng·h/mL/mg
Cmax / D, geometric mean (Day 28, with CFTR modulator, n = 17, dose-normalized): 10.2^a ng/mL/mg
AUC0–24 / D, geometric mean [1]: 120.2 ng·h/mL/mg
AUClast / D, geometric mean [1]: 271.3 ng·h/mL/mg
Cmax / D, geometric mean [1]: 8.8 ng/mL/mg
inter-participant variability (coefficient of variation) in Cmax, AUC0–24 and t1/2 (generally within): 15–50%
AUC(0-t) (10 mg, 10 mg QD, Day 1, n = 8, mean (CV%), read-out: AUC0–24): 879 ng·h/mL
AUC(0-t) (10 mg, 10 mg QD, Day 1, n = 8, mean (CV%), read-out: AUClast): 879 ng·h/mL
Cmax (10 mg, 10 mg QD, Day 1, n = 8, mean (CV%), with/without CFTR modulators, read-out: Cmax): 67.3 ng/mL
AUC(0-t) (10 mg, 10 mg QD, Day 28, n = 8, mean (CV%), read-out: AUC0–24): 1100 ng·h/mL
AUC(0-t) (10 mg, 10 mg QD, Day 28, n = 8, mean (CV%), read-out: AUClast): 2380 ng·h/mL
AUC(0-t) (25 mg, 25 mg QD, Day 1, n = 8, mean (CV%), read-out: AUC0–24): 1630 ng·h/mL
AUC(0-t) (25 mg, 25 mg QD, Day 1, n = 8, mean (CV%), read-out: AUClast): 1630 ng·h/mL
AUC(0-t) (25 mg, 25 mg QD, Day 28, n = 7, mean (CV%), read-out: AUC0–24): 3800 ng·h/mL
AUC(0-t) (25 mg, 25 mg QD, Day 28, n = 7, mean (CV%), read-out: AUClast): 8930 ng·h/mL
Cmax (25 mg, 25 mg QD, Day 28, n = 7, mean (CV%), read-out: Cmax): 249 ng/mL
AUC(0-t) (40 mg, 40 mg QD, Day 1, n = 8, mean (CV%), read-out: AUC0–24): 3690 ng·h/mL
AUC(0-t) (40 mg, 40 mg QD, Day 1, n = 8, mean (CV%), read-out: AUClast): 3690 ng·h/mL
Cmax (40 mg, 40 mg QD, Day 1, n = 8, mean (CV%), read-out: Cmax): 342 ng/mL
AUC(0-t) (40 mg, 40 mg QD, Day 28, n = 8, mean (CV%), read-out: AUC0–24): 6320 ng·h/mL
AUC(0-t) (40 mg, 40 mg QD, Day 28, n = 8, mean (CV%), read-out: AUClast): 15300 ng·h/mL
Cmax (40 mg, 40 mg QD, Day 28, n = 8, mean (CV%), read-out: Cmax): 490 ng/mL
AUC(0-t) (day 1, CFTR modulator stratum, 10-40 mg QD, read-out: mean AUC0–24 across brensocatib dose groups): 798 to 4120 ng·h/mL
AUC(0-t) (day 1, CFTR modulator stratum, 10-40 mg QD, read-out: mean AUClast across brensocatib dose groups): 798 to 4120 ng·h/mL
Cmax (day 1, CFTR modulator stratum, 10-40 mg QD, read-out: mean Cmax across brensocatib dose groups): 60.9 to 365 ng/mL
AUC(0-t) (day 1, non-CFTR modulator stratum, 10-40 mg QD, read-out: mean AUC0–24 across brensocatib dose groups): 1120 to 2400 ng·h/mL
AUC(0-t) (day 1, non-CFTR modulator stratum, 10-40 mg QD, read-out: mean AUClast across brensocatib dose groups): 1120 to 2400 ng·h/mL
Cmax (day 1, non-CFTR modulator stratum, 10-40 mg QD, read-out: mean Cmax across brensocatib dose groups): 86.4 to 274 ng/mL
AUC(0-t) (day 28, CFTR modulator stratum, 10-40 mg QD, read-out: mean AUC0–24 across brensocatib dose groups): 1080 to 7360 ng·h/mL
AUC(0-t) (day 28, CFTR modulator stratum, 10-40 mg QD, read-out: mean AUClast across brensocatib dose groups): 2440 to 17700 ng·h/mL
Cmax (day 28, CFTR modulator stratum, 10-40 mg QD, read-out: mean Cmax across brensocatib dose groups): 92 to 538 ng/mL
AUC(0-t) (day 28, non-CFTR modulator stratum, 10-40 mg QD, read-out: mean AUC0–24 across brensocatib dose groups): 1190 to 3740 ng·h/mL
AUC(0-t) (day 28, non-CFTR modulator stratum, 10-40 mg QD, read-out: mean AUClast across brensocatib dose groups): 2210 to 9540 ng·h/mL
Cmax (day 28, non-CFTR modulator stratum, 10-40 mg QD, read-out: mean Cmax across brensocatib dose groups): 84.3 to 348 ng/mL
AUC(0-inf) [2]: 2430 ng·h/mL
Vd/F [2]: 423 L
half-life (10 mg QD, Day 28, n = 8, mean (CV%), read-out: t1/2 (converted)): 30 h
Tmax (10 mg QD, Day 28, n = 8, median (range), read-out: Tmax): 1.9 h
AUC(0-inf) [3]: 9300 ng·h/mL
Vd/F [3]: 332 L
half-life (25 mg QD, Day 28, n = 7, mean (CV%), read-out: t1/2 (converted)): 33.1 h
AUC(0-inf) [4]: 16200 ng·h/mL
Vd/F [4]: 398 L
half-life (40 mg QD, Day 28, n = 8, mean (CV%), read-out: t1/2 (converted)): 38.5 h
Tmax (day 1 (after the first dose) and day 28 (steady state), across doses, read-out: median Tmax postdose): 1.5 to 2 h
half-life (range over CFTR modulator and non-CFTR modulator strata, read-out: elimination t1/2): 24.7 to 49.5 h
SMILES: Cn1c(=O)oc2ccc(-c3ccc(C[C@@H](C#N)NC(=O)[C@@H]4CNCCCO4)cc3)cc21 [Brensocatib]
